Experimental findings from patent US8222448B2, “Processes for production of 2-bromo-2,2-difluoroethanol and 2-(alkylcarbonyloxy)-1, 1-difluoroethanesulfonic acid salt” (priority 2007, dated 2012) are described below.

This data set in a line: Solubility in propylene glycol methyl ether acetate. Type of data set: physicochemical. The conditions noted are these: 1.0 g added to 100 g of propylene glycol methyl ether acetate, stirring. From the text:
1.0 g of sodium 2-(1′-adamantane)carbonyloxy-1,1-difluoroethanesulfonate synthesized in Example 8 was weighed and added to 100 g of propylene glycol methyl ether acetate, followed by stirring.

For `O=C(OCC(F)(F)S(=O)(=O)[O-])C12CC3CC(CC(C3)C1)C2.c1ccc([S+](c2ccccc2)c2ccccc2)cc1` [Example 8, triphenylsulfonium 2-(1′-adamantane)carbonyloxy-1,1-difluoroethanesulfonate], the Solubility result was “completely dissolved”.
